Test results as given in patent publication US7346384B2, “Method of magnetic resonance investigation of a sample using a nuclear spin polarised MR imaging agent” (GE Healthcare AS, priority 2000, dated 2008).

Assays:
[1] = water solubility; format: physicochemical
[2] = T1 relaxation time of the reporter compound; format: physicochemical; conditions: high T1 agent; 15N storage nucleus; no field or temperature printed for this value

For [2H]C([2H])(F)C([2H])([2H])[N+](C)(C)C [molecule (I)], the water solubility [1] was “good” and the T1 value [2] was “about 3 minutes”.
